Reference: patent US20240124434A1, “ATF6 INHIBITORS AND USES THEREOF” (Altos Labs, Inc., priority 2018, published 2024)
Read-outs that look alike come from different tables or passages of the source.

Test system: ATF6
Test: ERSE ATF6-luciferase reporter assay (thapsigargin-induced ER stress)
Type: cell-based, human
Conditions: thapsigargin-induced ER stress, U2-OS ATF6 luc reporter cells; for inhibition at 1 µM: 8 h; for inhibition at 1 µM / Inh. ATF6-Luc @ 1 μM [%]: 8 hr
[1] = Homo sapiens, U2OS, 1 μM test compound, read-out: Inh. ATF6-Luc @ 1 μM [%]
[2] = Homo sapiens, U2OS, dose-response 30 μM to 1 nM, read-out: IC50 ATF6-Luc reporter
[3] = Homo sapiens, U2OS, read-out: Inh. ATF6-Luc @ 1 μM [%], 1 μM test compound
[4] = Homo sapiens, U2OS, read-out: IC50 ATF6-Luc reporter [μM], dose-response 30 μM to 1 nM
[5] = dose-response 30 μM to 1 nM, read-out: IC50 ATF6-Luc reporter

Compound | inhibition at 1 µM [1] [%] | IC50 [2] [µM] | further results
O=C(Nc1cnn(Cc2ccc(C(F)(F)F)cc2C(F)(F)F)c1)c1cnc(-c2ccccn2)s1 [Compound 118, N-(1-(2,4-bis(trifluoromethyl)benzyl)-1H-pyrazol-4-yl)-2-(pyridin-2-yl)thiazole-5-carboxamide] | < 25 | 1 to 10 | –
C[C@H](c1ccc(C(F)(F)F)cc1C(F)(F)F)n1cc(NC(=O)c2cc(-c3ccccn3)[nH]n2)cn1 [Compound 119, (R)—N-(1-(1-(2,4-bis(trifluoromethyl)phenyl)ethyl)-1H-pyrazol-4-yl)-5-(pyridin-2-yl)-1H-pyrazole-3-carboxamide] | < 25 | > 10 | –
C[C@@H](c1ccc(C(F)(F)F)cc1C(F)(F)F)n1cc(NC(=O)c2cc(-c3ccccn3)[nH]n2)cn1 [Compound 120, (S)—N-(1-(1-(2,4-bis(trifluoromethyl)phenyl)ethyl)-1H-pyrazol-4-yl)-5-(pyridin-2-yl)-1H-pyrazole-3-carboxamide] | < 25 | > 10 | –
C[C@@H](c1ccc(C(F)(F)F)cc1C(F)(F)F)n1cc(NC(=O)c2cn(-c3ccccn3)nn2)cn1 [Compound 122, (S)—N-(1-(1-(2,4-bis(trifluoromethyl)phenyl)ethyl)-1H-pyrazol-4-yl)-1-(pyridin-2-yl)-1H-1,2,3-triazole-4-carboxamide] | – | – | inhibition at 1 µM [3]: < 25%; IC50 [4]: > 10 µM
C[C@H](c1ccc(C(F)(F)F)cc1C(F)(F)F)n1cc(NC(=O)c2coc(-c3ccccn3)n2)cn1 [Compound 125, (R)—N-(1-(1-(2,4-bis(trifluoromethyl)phenyl)ethyl)-1H-pyrazol-4-yl)-2-(pyridin-2-yl)oxazole-4-carboxamide] | < 25 | > 10 | –
C[C@H](c1ccc(C(F)(F)F)cc1C(F)(F)F)n1cc(NC(=O)c2cnc(-c3ccccn3)o2)cn1 [Compound 127, (R)N-(1-(1-(2,4-bis(trifluoromethyl)phenyl)ethyl)-1H-pyrazol-4-yl)-2-(pyridin-2-yl)oxazole-5-carboxamide] | < 25 | > 10 | –
O=C(Nc1cnn(Cc2ccc(C(F)(F)F)cc2C(F)(F)F)c1)c1cnc(Nc2ccccn2)s1 [Compound 130, N-(1-(2,4-bis(trifluoromethyl)benzyl)-1H-pyrazol-4-yl)-2-(pyridin-2-ylamino)thiazole-5-carboxamide] | < 25 | > 10 | –
C[C@@H](c1ccc(C(F)(F)F)cc1C(F)(F)F)n1cc(NC(=O)c2cc(-c3cnccn3)on2)cn1 [Compound 132, (S)—N-(1-(1-(2,4-bis(trifluoromethyl)phenyl)ethyl)-1H-pyrazol-4-yl)-5-(pyrazin-2-yl)isoazole-3-carboxamide] | – | – | inhibition at 1 µM [3]: < 25%; IC50 [4]: > 10 µM
C[C@H](c1ccc(C(F)(F)F)cc1C(F)(F)F)n1cc(NC(=O)c2nnc(-c3ccccn3)o2)cn1 [Compound 133, (R)—N-(1-(1-(2,4-bis(trifluoromethyl)phenyl)ethyl)-1H-pyrazol-4-yl)-5-(pyridin-2-yl)-1,3,4-oxadiazole-2-carboxamide] | < 25 | > 10 | –
C[C@@H](c1ccc(C(F)(F)F)cc1C(F)(F)F)n1cc(NC(=O)c2nnc(-c3ccccn3)o2)cn1 [Compound 134] | < 25 | > 10 | –
Cc1c(C(=O)Nc2cnn(Cc3ccc(C(F)(F)F)cc3C(F)(F)F)c2)noc1-c1ccccn1 [Compound 135, N-(1-(2,4-bis(trifluoromethyl)benzyl)-1H-pyrazol-4-yl)-4-methyl-5-(pyridin-2-yl)isoxazole-3-carboxamide] | 25 to 50 | > 10 | –
CC(c1ccc(F)cc1C(F)(F)F)n1cc(NC(=O)c2nnc(-c3ccccn3)s2)cn1 (stereo not shown) [Compound 137, N-(1-(1-(4-fluoro-2-(trifluoromethyl)phenyl)ethyl)-1H-pyrazol-4-yl)-5-(pyridin-2-yl)-1,3,4-thiadiazole-2-carboxamide] | < 25 | > 10 | –
C[C@@H](c1ccc(C(F)(F)F)cc1C(F)(F)F)n1cc(NC(=O)c2ccccn2)cn1 [Compound 139, (S)—N-(1-(1-(2,4-bis(trifluoromethyl)phenyl)ethyl)-1H-pyrazol-4-yl)picolinamide] | < 25 | > 10 | –
C[C@H](c1ccc(C(F)(F)F)cc1C(F)(F)F)n1cc(NC(=O)c2ccccn2)cn1 [Compound 140, (R)—N-(1-(1-(2,4-bis(trifluoromethyl)phenyl)ethyl)-1H-pyrazol-4-yl)picolinamide] | < 25 | > 10 | –
C[C@@H](c1ccc(C(F)(F)F)cc1C(F)(F)F)n1cc(NC(=O)c2cnccn2)cn1 [Compound 141, (S)—N-(1-(1-(2,4-bis(trifluoromethyl)phenyl)ethyl)-1H-pyrazol-4-yl)pyrazine-2-carboxamide] | < 25 | > 10 | –
C[C@H](c1ccc(C(F)(F)F)cc1C(F)(F)F)n1cc(NC(=O)c2cnccn2)cn1 [Compound 142, (R)—N-(1-(1-(2,4-bis(trifluoromethyl)phenyl)ethyl)-1H-pyrazol-4-yl)pyrazine-2-carboxamide] | < 25 | > 10 | –

Compound | inhibition at 1 µM [1] [%] | IC50 [2] [µM] | further results
O=C(Nc1cnn(C2CCc3ccccc32)c1)c1cc(-c2ccccn2)on1 (stereo not shown) [Compound 143, N-(1-(2,3-dihydro-1H-inden-1-yl)-1H-pyrazol-4-yl)-5-(pyridin-2-yl)isoxazole-3-carboxamide] | < 25 | > 10 | –
O=C(Nc1cnn(C2CCc3ccccc32)c1)c1nnc(-c2ccco2)s1 (stereo not shown) [Compound 144, N-(1-(2,3-dihydro-1H-inden-1-yl)-1H-pyrazol-4-yl)-5-(furan-2-yl)-1,3,4-thiadiazole-2-carboxamide] | < 25 | > 10 | –
O=C(Nc1cnn(Cc2c(Cl)cccc2Cl)c1)c1nnc(-c2ccccn2)s1 [Compound 145, N-(1-(2,6-dichlorobenzyl)-1H-pyrazol-4-yl)-5-(pyridin-2-yl)-1,3,4-thiadiazole-2-carboxamide] | < 25 | > 10 | –
O=C(Nc1cnn(Cc2c(Cl)cccc2Cl)c1)c1cc(-c2ccccn2)on1 [Compound 146, N-(1-(2,6-dichlorobenzyl)-1H-pyrazol-4-yl)-5-(pyridin-2-yl)isoxazole-3-carboxamide] | < 25 | > 10 | –
O=C(Nc1cnn(Cc2c(Cl)cccc2Cl)c1)c1cnc(-c2ccco2)s1 [Compound 147, N-(1-(2,6-dichlorobenzyl)-1H-pyrazol-4-yl)-2-(furan-2-yl)thiazole-5-carboxamide] | < 25 | > 10 | –
O=C(Nc1cnn(Cc2c(Cl)cccc2Cl)c1)c1nnc(-c2ccco2)s1 [Compound 148, N-(1-(2,6-dichlorobenzyl)-1H-pyrazol-4-yl)-5-(furan-2-yl)-1,3,4-thiadiazole-2-carboxamide] | < 25 | > 10 | –
O=C(Nc1cnn([C@@H]2CCc3ccccc32)c1)c1cc(-c2ccco2)on1 [Compound 149, (R)—N-(1-(2,3-dihydro-1H-inden-1-yl)-1H-pyrazol-4-yl)-5-(furan-2-yl)isoxazole-3-carboxamide] | < 25 | > 10 | –
O=C(Nc1cnn([C@H]2CCc3ccccc32)c1)c1cc(-c2ccco2)on1 [Compound 150, (S)—N-(1-(2,3-dihydro-1H-inden-1-yl)-1H-pyrazol-4-yl)-5-(furan-2-yl)isoxazole-3-carboxamide] | < 25 | > 10 | –
O=C(Nc1cnn(Cc2ccc(C(F)(F)F)cc2C(F)(F)F)c1)c1nnc(-c2ccccn2)o1 [Compound 151, N-(1-(2,4-bis(trifluoromethyl)benzyl)-1H-pyrazol-4-yl)-5-(pyridin-2-yl)-1,3,4-oxadiazole-2-carboxamide] | < 25 | > 10 | –
C[C@@H](c1ccc(C(F)(F)F)cc1C(F)(F)F)n1cc(NC(=O)c2nnc(-c3cnccn3)s2)cn1 [Compound 153] | – | – | inhibition at 1 µM [3]: < 25%; IC50 [4]: > 10 µM
C[C@H](c1ccc(C(F)(F)F)cc1C(F)(F)F)n1cc(NC(=O)c2nnc(-c3ccncn3)s2)cn1 [Compound 156, (R)—N-(1-(1-(2,4-bis(trifluoromethyl)phenyl)ethyl)-1H-pyrazol-4-yl)-5-(pyrimidin-4-yl)-1,3,4-thiadiazole-2-carboxamide] | 25 to 50 | < 1 | –
C[C@@H](c1ccc(C(F)(F)F)cc1C(F)(F)F)n1cc(NC(=O)c2nnc(-c3ccncn3)s2)cn1 [Compound 157, (S)—N-(1-(1-(2,4-bis(trifluoromethyl)phenyl)ethyl)-1H-pyrazol-4-yl)-5-(pyrimidin-4-yl)-1,3,4-thiadiazole-2-carboxamide] | < 25 | > 10 | –
C[C@H](c1ccc(C(F)(F)F)cc1C(F)(F)F)n1cc(NC(=O)c2nnc(-c3ccco3)s2)cn1 [Compound 160, (R)—N-(1-(1-(2,4-bis(trifluoromethyl)phenyl)ethyl)-1H-pyrazol-4-yl)-5-(furan-2-yl)-1,3,4-thiadiazole-2-carboxamide] | < 25 | > 10 | –
C[C@@H](c1ccc(C(F)(F)F)cc1C(F)(F)F)n1cc(NC(=O)c2nnc(-c3ccco3)s2)cn1 [Compound 161, (S)—N-(1-(1-(2,4-bis(trifluoromethyl)phenyl)ethyl)-1H-pyrazol-4-yl)-5-(furan-2-yl)-1,3,4-thiadiazole-2-carboxamide] | 25 to 50 | < 1 | –
Ceapin-A4 [reference compound] | – | – | Inh. ATF6-Luc @ 1 μM [%] (1 μM test compound): + (+ refers to <25% inhibition at 1 μM); IC50 [5]: > 10 µM
Ceapin-A8 [reference compound] | – | – | Inh. ATF6-Luc @ 1 μM [%] (1 μM test compound): + (+ refers to <25% inhibition at 1 μM); IC50 [5]: > 10 µM
